In ChEMBL document CHEMBL4715709, “Synthesis and evaluation of anticonvulsant properties of new N-Mannich bases derived from 3-(1-phenylethyl)- and 3-benzyl-pyrrolidine-2,5-dione” (Bioorg Med Chem Lett, 2016):
The source made the active and inactive calls. The rule behind the calls is not given here.

Legend:
[1] = Neurotoxicity activity in ip dosed mouse assessed as induction of motor impairment by rotarod test; format: toxicity, organism-based; details: in vivo
Mus musculus [2] = assay: Anticonvulsant activity in ip dosed mouse assessed as protection against tonic-clonic seizures by maximal electroshock seizure test; format: functional
Mus musculus [3] = assay: Anticonvulsant activity in ip dosed mouse assessed as protection against ScPTZ-induced epilepsy by subcutaneous pentylenetetrazole test; format: functional
[4] = Protection index, ratio of TD50 for neurotoxicity in ip dosed mouse to ED50 for anticonvulsant activity in ip dosed mouse by maximal electroshock seizure test; format: toxicity, organism-based; details: in vivo, read-out: PI
[5] = Protection index, ratio of TD50 for neurotoxicity in ip dosed mouse to ED50 for anticonvulsant activity in ip dosed mouse by subcutaneous pentylenetetrazole test; format: toxicity, organism-based; details: in vivo, read-out: PI
Mus musculus [6] = assay: Anticonvulsant activity in ip dosed mouse assessed as minimum dose required for protection against ScPTZ-induced epilepsy measured after 0.5 hrs by subcutaneous pentylenetetrazole test; format: functional
[7] = Neurotoxicity in ip dosed mouse assessed as minimum dose required for induction of motor impairment measured after 0.5 hrs by rotarod test; format: toxicity, organism-based; details: in vivo
Mus musculus [8] = assay: Anticonvulsant activity in ip dosed mouse assessed as protection against ScPTZ-induced epilepsy measured after 4 hrs by subcutaneous pentylenetetrazole test; format: functional
Mus musculus [9] = assay: Anticonvulsant activity in mouse assessed as protection against tonic-clonic seizures at 300 mg/kg, ip measured after 0.5 hrs by maximal electroshock seizure test; format: functional, organism-based
Mus musculus [10] = assay: Anticonvulsant activity in mouse assessed as protection against tonic-clonic seizures at 300 mg/kg, ip measured after 4 hrs by maximal electroshock seizure test; format: functional, organism-based
Mus musculus [11] = assay: Anticonvulsant activity in mouse assessed as protection against ScPTZ-induced epilepsy at 300 mg/kg, ip measured after 4 hrs by subcutaneous pentylenetetrazole test; format: functional, organism-based
[12] = Neurotoxicity in mouse assessed as induction of motor impairment at 300 mg/kg, ip measured after 4 hrs by rotarod test; format: toxicity, organism-based; details: in vivo
[13] = Protection index, ratio of TD50 for neurotoxicity in ip dosed mouse to ED50 for anticonvulsant activity in ip dosed mouse measured after 4 hrs by subcutaneous pentylenetetrazole test; format: toxicity, organism-based; details: in vivo, read-out: PI
Mus musculus [14] = assay: Anticonvulsant activity in ip dosed mouse assessed as minimum dose required for protection against tonic-clonic seizures measured after 0.5 hrs by maximal electroshock seizure test; format: functional
Mus musculus [15] = assay: Anticonvulsant activity in ip dosed mouse assessed as minimum dose required for protection against tonic-clonic seizures measured after 4 hrs by maximal electroshock seizure test; format: functional
Mus musculus [16] = assay: Anticonvulsant activity in ip dosed mouse assessed as minimum dose required for protection against ScPTZ-induced epilepsy measured after 4 hrs by subcutaneous pentylenetetrazole test; format: functional
Mus musculus [17] = assay: Anti-convulsant activity in mouse assessed as protection of animals against psychomotor seizures at 100 mg/kg, ip measured after 0.5 hrs by 6 Hz limbic seizure test; format: functional
Mus musculus [18] = assay: Anti-convulsant activity in mouse assessed as protection of animals against psychomotor seizures at 100 mg/kg, ip measured after 4 hrs by 6 Hz limbic seizure test; format: functional
Mus musculus [19] = assay: Anticonvulsant activity in ip dosed mouse assessed as protection against ScPTZ-induced epilepsy measured after 0.5 hrs by subcutaneous pentylenetetrazole test; format: functional
Mus musculus [20] = assay: Anti-convulsant activity in ip dosed mouse assessed as protection against psychomotor seizures measured after 0.5 hrs by 6 Hz limbic seizure test; format: functional
[21] = Protection index, ratio of TD50 for neurotoxicity in ip dosed mouse to ED50 for anticonvulsant activity in ip dosed mouse measured after 0.5 hrs by subcutaneous pentylenetetrazole test; format: toxicity, organism-based; details: in vivo, read-out: PI
[22] = Protection index, ratio of TD50 for neurotoxicity in ip dosed mouse to ED50 for anticonvulsant activity in ip dosed mouse measured after 0.5 hrs by 6 Hz limbic seizure test; format: toxicity, organism-based; details: in vivo, read-out: PI
[23] = Neurotoxicity in ip dosed mouse assessed as minimum dose required for induction of motor impairment measured after 4 hrs by rotarod test; format: toxicity, organism-based; details: in vivo
Mus musculus [24] = assay: Anticonvulsant activity in mouse assessed as protection against ScPTZ-induced epilepsy at 300 mg/kg, ip measured after 0.5 hrs by subcutaneous pentylenetetrazole test; format: functional, organism-based
Homo sapiens [25] = species: Homo sapiens; assay: Inhibition of Sodium channel site 2 (unknown origin) at 100 uM
Homo sapiens [26] = species: Homo sapiens; assay: Inhibition of L-type calcium channel (unknown origin) at 100 uM
Homo sapiens [27] = species: Homo sapiens; assay: Inhibition of NMDA receptor (unknown origin) at 100 uM
Homo sapiens [28] = species: Homo sapiens; assay: Inhibition of GABAA receptor (unknown origin) at 100 uM
[29] = Neurotoxicity in mouse assessed as induction of motor impairment at 300 mg/kg, ip measured after 0.5 hrs by rotarod test; format: toxicity, organism-based; details: in vivo
Mus musculus [30] = assay: Anticonvulsant activity in ip dosed mouse assessed as protection against ScPTZ-induced epilepsy measured after 0.25 hrs by subcutaneous pentylenetetrazole test; format: functional
Mus musculus [31] = assay: Anti-convulsant activity in ip dosed mouse assessed as protection against psychomotor seizures measured after 0.25 hrs by 6 Hz limbic seizure test; format: functional

Structure (SMILES): O=C1CC(C(c2ccccc2)c2ccccc2)C(=O)N1CN1CCN(c2cccc(C(F)(F)F)c2)CC1 (centres undefined)
- TD50 [1]: > 500 mg/kg
- ED50 (Mus musculus [2]): 101 mg/kg
- ED50 (Mus musculus [3]): 73 mg/kg
- selectivity ratio [4]: > 4.95
- selectivity ratio [5]: > 6.84

Structure (SMILES): COc1ccccc1N1CCN(CN2C(=O)CC(C(C)c3ccccc3)C2=O)CC1 (centres undefined)
- MED=>50 (Mus musculus [6]): 30 mg/kg
- MTD50 [7]: 300 mg/kg
- ED50 (Mus musculus [8]): 48 mg/kg
- TD50 [1]: 128 mg/kg
- Activity (Mus musculus [9]): inactive
- Activity (Mus musculus [10]): inactive
- Activity (Mus musculus [11]): inactive
- Activity [12]: Non-Toxic
- selectivity ratio at 4 h [13]: 2.66

Structure (SMILES): O=C1CC(Cc2ccccc2)C(=O)N1CN1CCOCC1 (racemic)
- minimum effective dose (Mus musculus [14]): 300 mg/kg
- MED=>50 (Mus musculus [15]): 300 mg/kg
- MED=>50 (Mus musculus [6]): 100 mg/kg
- MED=>50 (Mus musculus [16]): 100 mg/kg
- MTD50 [7]: 300 mg/kg
- Activity (Mus musculus [17]): 100%
- Activity (Mus musculus [18]): 0%
- ED50 (Mus musculus [19]): 87 mg/kg
- ED50 (Mus musculus [20]): 53 mg/kg
- TD50 [1]: 179 mg/kg
- selectivity ratio at 0.5 h [21]: 2.05
- selectivity ratio at 0.5 h [22]: 3.37
- Activity [12]: Non-Toxic

Structure (SMILES): O=C1CC(Cc2ccccc2)C(=O)N1CN1CCN(c2ccc(F)cc2)CC1 (racemic)
- minimum effective dose (Mus musculus [14]): 300 mg/kg
- MED=>50 (Mus musculus [15]): 300 mg/kg
- MTD50 [7]: 300 mg/kg
- MTD50 [23]: 300 mg/kg
- Activity (Mus musculus [24]): inactive
- Activity (Mus musculus [11]): inactive

Structure (SMILES): CC(c1ccccc1)C1CC(=O)N(CN2CCN(C)CC2)C1=O.Cl (racemic)
- minimum effective dose (Mus musculus [14]): 300 mg/kg
- MED=>50 (Mus musculus [6]): 30 mg/kg
- MED=>50 (Mus musculus [16]): 300 mg/kg
- MTD50 [7]: 300 mg/kg
- Activity (Mus musculus [17]): 100%
- Activity (Mus musculus [18]): 0%
- ED50 (Mus musculus [19]): 39 mg/kg
- ED50 (Mus musculus [20]): 36 mg/kg
- TD50 [1]: 229 mg/kg
- selectivity ratio at 0.5 h [21]: 5.87
- selectivity ratio at 0.5 h [22]: 6.36
- Activity (Mus musculus [10]): inactive
- Activity [12]: Non-Toxic
- inhibition (Homo sapiens [25]): < 50%
- inhibition (Homo sapiens [26]): < 50%
- inhibition (Homo sapiens [27]): < 50%
- inhibition (Homo sapiens [28]): < 50%

Structure (SMILES): O=C1CC(Cc2ccccc2)C(=O)N1CN1CCN(c2ccc(Cl)cc2)CC1 (racemic)
- MTD50 [23]: 300 mg/kg
- Activity (Mus musculus [9]): inactive
- Activity (Mus musculus [10]): inactive
- Activity (Mus musculus [24]): inactive
- Activity (Mus musculus [11]): inactive
- Activity [29]: Non-Toxic

Structure (SMILES): O=C1CC(Cc2ccccc2)C(=O)N1CN1CCN(c2ncccn2)CC1 (racemic)
- MED=>50 (Mus musculus [16]): 100 mg/kg
- MTD50 [7]: 300 mg/kg
- MTD50 [23]: 300 mg/kg
- Activity (Mus musculus [9]): inactive
- Activity (Mus musculus [10]): inactive
- Activity (Mus musculus [24]): inactive

Structure (SMILES): CN1CCN(CN2C(=O)CC(Cc3ccccc3)C2=O)CC1.Cl (racemic)
- minimum effective dose (Mus musculus [14]): 300 mg/kg
- MED=>50 (Mus musculus [6]): 100 mg/kg
- MED=>50 (Mus musculus [16]): 300 mg/kg
- Activity (Mus musculus [17]): 66%
- Activity (Mus musculus [18]): 0%
- ED50 (Mus musculus [19]): 95 mg/kg
- ED50 (Mus musculus [20]): 65 mg/kg
- TD50 [1]: 324 mg/kg
- selectivity ratio at 0.5 h [21]: 3.41
- selectivity ratio at 0.5 h [22]: 5
- Activity (Mus musculus [10]): inactive
- Activity [29]: Non-Toxic
- Activity [12]: Non-Toxic

Structure (SMILES): CC(c1ccccc1)C1CC(=O)N(CN2CCN(CCO)CC2)C1=O.Cl (racemic)
- minimum effective dose (Mus musculus [14]): 300 mg/kg
- MED=>50 (Mus musculus [6]): 300 mg/kg
- MED=>50 (Mus musculus [16]): 300 mg/kg
- MTD50 [7]: 300 mg/kg
- Activity (Mus musculus [17]): 100%
- Activity (Mus musculus [18]): 0%
- ED50 (Mus musculus [20]): 30 mg/kg
- TD50 [1]: 290 mg/kg
- selectivity ratio at 0.5 h [22]: 9.66
- Activity (Mus musculus [10]): inactive
- Activity [12]: Non-Toxic

Structure (SMILES): CC(c1ccccc1)C1CC(=O)N(CN2CCN(C3CCCCC3)CC2)C1=O (racemic)
- MED=>50 (Mus musculus [6]): 100 mg/kg
- MTD50 [7]: 300 mg/kg
- Activity (Mus musculus [17]): 100%
- Activity (Mus musculus [18]): 0%
- ED50 (Mus musculus [19]): 101 mg/kg
- ED50 (Mus musculus [20]): 75 mg/kg
- TD50 [1]: 196 mg/kg
- selectivity ratio at 0.5 h [21]: 1.94
- selectivity ratio at 0.5 h [22]: 2.61
- Activity (Mus musculus [9]): inactive
- Activity (Mus musculus [10]): inactive
- Activity (Mus musculus [11]): inactive
- Activity [12]: Non-Toxic

Structure (SMILES): O=C1CC(Cc2ccccc2)C(=O)N1CN1CCN(c2ccc(Cl)c(Cl)c2)CC1 (racemic)
- MED=>50 (Mus musculus [15]): 300 mg/kg
- MED=>50 (Mus musculus [6]): 300 mg/kg
- MED=>50 (Mus musculus [16]): 100 mg/kg
- MTD50 [23]: 300 mg/kg
- Activity (Mus musculus [17]): 0%
- Activity (Mus musculus [18]): 0%
- ED50 (Mus musculus [8]): 106 mg/kg
- TD50 [1]: 246 mg/kg
- Activity (Mus musculus [9]): inactive
- Activity [29]: Non-Toxic
- selectivity ratio at 4 h [13]: 2.32

Structure (SMILES): CCC1(C)CC(=O)NC1=O (centres undefined) [ETHOSUXIMIDE]
- ED50 (Mus musculus [30]): 140 mg/kg
- ED50 (Mus musculus [31]): > 200 mg/kg

Structure (SMILES): CCCC(CCC)C(=O)O [VALPROIC ACID]
- ED50 (Mus musculus [19]): 239 mg/kg
- ED50 (Mus musculus [20]): 131 mg/kg
